# Marks after values point to notes of the source that are not given here.
# Columns and labels:
# [1] = system: normal human aortic smooth muscle cells (AoSMCs); test: Promotion of cAMP production in AoSMC culture; format: cell-based; conditions: Ao-SMCs, 72 hours of culture
# Experimental: Cells (produceed by Lonza, purchased from Takara Bio Inc., product name: normal human aortic smooth muscle cells (AoSMCs), product code: CC-2571) were cultured in a medium (produced by Lonza, purchased from Takara Bio Inc., product name: smooth muscle cell medium kit-2 (5% FBS), SmGM™-2 Bullet Kit™, product code: CC-3182) for 72 hours. To the culture medium at the number of cells of 4.0×10^5 cells which was rendered to be serum free, Compound 1 dissolved in DMSO was added so as to be 100 nM or 1000 nM. As a control, the same amount of DMSO was added to the culture medium. After 72 hours of culture, the supernatant was recovered and cAMP in the culture medium was measured with the cAMP EIA kit Code. 581001.
# NHDFs and HUVECs = test: Induction of internal regenerating factors in co-culture with NHDFs and HUVECs; format: cell-based, human
smiles,measurement,setting,value
"O=C(O)COc1cccc2c1CCC=C2CCO/N=C(\c1ccccc1)c1cccnc1 [Compound 1, (E)-[5-[2-[1-phenyl-1-(3-pyridyl)methylidenaminoxy]ethyl]-7,8-dihydronaphthalen-1-yloxy]acetic acid]","cAMP in the culture medium, Average",[1]; 100 nM,50.6* nM
same,"cAMP in the culture medium, Average",[1]; 1000 nM,105.4* nM
same,"induction of internal regenerating factors (HGF, VEGF, EGF, IGF-1, SDF-1, G-CSF)",NHDFs and HUVECs,induce

# Source: patent US9968716B2, “Drug-eluting stent graft” (Ono Pharmaceutical Co., Ltd., priority 2013, dated 2018)
